Reference: patent US11760754B2, “Heterocyclic mitochondrial activity inhibitors and uses thereof” (UNIVERSITÉ DE MONTRÉAL, priority 2017, dated 2023)
Read-outs that look alike come from different tables or passages of the source.

Assays:
OCI-AML3 cells [1] = experiment: OCI-AML3 cell growth inhibition, dose-response viability assay (CellTiterGlo); type: cell-based; details: OCI-AML3 cells
Summary of the method: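 OCI-AML3 cells seeded, then exposed to compound in serial dilutions from 10 μM to 0.5 nM, in duplicate or quadruplicate. Viability read by CellTiter-Glo.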

[2] = test system: Normal primitive CD34-positive cord blood cells; experiment: cells; details: Homo sapiens, CD34-positive cell, read-out: EC50 in normal primitive CD34-positive cord blood cells
OCI-AML5 cells = details: 6-day culture, 384-well plates
ETC complex I = details: cell free assay
Excerpt: The cell-free kit assay for ETC complex I activity was purchased from MitoSciences (Abcam, Cambridge, UK), and used in accordance with the manufacturer's protocol.

OCI-AML3 leukemic cells [3] = test system: OCI-AML3 leukemic cells
Description: Oxygen consumption rates and extracellular acidification rates were measured using a 96-well Seahorse Bioanalyzer XFe96® or XFe24® according to the manufacturer's instructions (Agilent Technologies). Seahorse XF Base medium was supplemented with 1 mM pyruvate, 2 mM glutamine and 10 mM glucose in the case of Mitochondrial Stress Test and with 1 mM pyruvate, 2 mM glutamine and no glucose in the case of Glycolytic Stress Test. The pH of the Seahorse media was then adjusted at 7.4 prior to assay. In brief, leukemic cells were seeded into Seahorse 96-well (or 24-well) plates pre-coated for 3 h with poly-lysine (Sigma-Aldrich, P4707) at a density of 75,000 cells/well in 100 μL (or 150,000 cells/well, in 150 μL) of temperature/CO2 pre-adjusted Seahorse media per well. The Seahorse plates were then centrifuged at 1400 rpm for 5 min. An additional 75 μL (or 375 μL) of Seahorse media was then added and cells were eventually analyzed following the manufacturer's instructions by adding compounds in a constant volume of 25 μL (or 75 μL). Compounds were acutely injected in cells at a final concentration of 1 μM for Mubritinib, 1 μM for Oligomycin, 0.5 μM for FCCP, 0.5 μM for Rotenone/Antimycin A, Glucose 10 mM and 2-Deoxy-Glucose 50 mM.

OCI-AML3 cells [4] = test system: OCI-AML3 cells
Description: LC/MS metabolite measurements were carried out at the McGill Metabolomics platform. Authentic metabolite standards were purchased from Sigma-Aldrich Co., while the following LC/MS grade solvents and additives were purchased from Fisher: ammonium acetate, formic acid, water, methanol, and acetonitrile. OCI-AML3 cells (5 million cells, quadruplicates, treated with either DMSO or Mubritinib 500 nM for 20 h) were washed twice with ice-cold 150 mM ammonium formate pH 7.2. Metabolites were then extracted using 380 μl of LC/MS grade 50% methanol/50% water mixture and 220 μl of cold acetonitrile. Samples were then homogenized by 1.4 mm ceramic bead beating 2 min at 30 Hz (TissueLyser, Qiagen). A volume of 300 μl of ice-cold water and 600 μl of ice-cold methylene chloride were added to the lysates. Samples were vortexed and allowed to rest on ice for 10 min for phase separation followed by centrifugation at 4,000 rpm for 5 min. The upper aqueous layer was transferred to a fresh pre-chilled tube. Samples were eventually dried by vacuum centrifugation operating at −4° C. (Labconco) and stored at −80° C. until ready for LC-MS/MS data collection. For LC-MS/MS analysis, specimens were first re-suspended in 50 μl of water and clarified by centrifugation for 15 min at 15,000 rpm at 1° C. Samples were maintained at 4° C. for the duration of the LC-MS/MS analysis in the autosampler. Specimens were separated by U-HPLC (Ultra-High-Performance Liquid Chromatography) (1290 Infinity, Agilent Technologies) using a Scherzo SM-C18 (3 mm×150 mm) 3 μm column and guard column (Imtakt USA) operating at 10° C.

OCI-AML3 cells [5] = test system: OCI-AML3 cells; remark: listed apart in the source
Excerpt: (§1) The following FACS antibodies were used: anti-human CD45 Pacific Blue (BioLegend 304029), CD45 fluorescein isothiocyanate (FITC; BioLegend 304006), CD33 phycoerythrin (PE; BD Bioscience 555450), CD33 BV421 (BD 562854), CD34 […] (APC; BD Bioscience 555824), CD34 APC (Stem Cell Technologies 10613), CD3 FITC (BD Bioscience 555332), CD4 APC-Cy7 (BD 560158), CD8 APC (BD 555369), CD3 PE-Cy5 (BD 555334), CD19 PE-Cy7(BD Bioscience 557835), anti-mouse CD45.1 APC-efluor730 (eBioscience 47-0453-82), ERBB2-PE (Biolegend®, 324406), Annexin V FITC (BD Bioscience®, 556419). Dead cells were stained using Propidium iodide at a final concentration of 1 μg/mL. For ROS quantification cells were stained with 1 μM H2DCFDA (Thermo Fisher, […]) under normal growth conditions. Cells were analyzed on LSRII® flow cytometer (BD Bioscience®), BD Canto® II cytometer (BD Bioscience) or on an IQue Screener (Intellicyt®) and results were analyzed with BD fluorescence-activated cell sorter (FACS) Diva®4.1 and FlowJo®X software.

OCI-AML3 leukemic cells [6] = details: 500 nM, 24 h
Excerpt: as §1

Complex I = details: OCI-AML3 cells, ubiquinone-dependent vs -independent activity
[7] = test system: pyruvate dehydrogenase (PDH); details: OCI-AML3 cells
AML patient cells = experiment: Primary AML patient cell dose-response viability assay (chemical screen); details: for EC50: Homo sapiens
[8] = 500 nM, 24 h, relative to DMSO control

FC(F)(F)c1ccc(/C=C/c2nc(COc3ccc(CCCCn4ccnn4)cc3)co2)cc1 [Mubritinib]
OCI-AML3 cells sensitive to the compound (dose response) (OCI-AML3 cells [1]): sensitive | EC50 [2]: > 375 nM | OCI-AML5 response to compound-induced cell death (OCI-AML5 cells): resistant | effect on ETC Complex I activity (ETC complex I): inhibitory effect | glycolytic switch (OCI-AML3 leukemic cells [3]; OCI-AML3 cells): induce a glycolytic switch | oxygen consumption rate (OCI-AML3 leukemic cells [3]; acute injection, 1 μM): impaired | levels of oxidized glutathione (OCI-AML3 cells [4]; [8]): increased | levels of reduced glutathione (OCI-AML3 cells [4]; [8]): decreased | levels of citric acid cycle intermediates (citrate, alpha-ketoglutarate, succinate, fumarate, malate) (OCI-AML3 cells [4]; OCI-AML3 cells): reduces | compound-induced apoptosis in the presence of ROS scavenger N-acetyl-cysteine (NAC) (OCI-AML3 cells [5]; 100 nM 24 h, 6 mM NAC pre-incubation 4 hours): significantly decreased | Annexin V staining (marker of apoptosis) (OCI-AML3 cells [5]; 24 hours, 100 nM or 10 μM): increase | number of dead (PI-positive) cells (OCI-AML3 cells [5]; 27 hours of treatment): increase | live cell counts (PI-negative cells) (OCI-AML3 cells [5]; four days of treatment, dose-dependent): reduction | level of ROS activity (hydroxyl, peroxyl), DCFDA (OCI-AML3 leukemic cells [6]): increased | nature of inhibitory effect on complex I (Complex I): NADH-independent (i.e. ubiquinone-dependent) | effect on pyruvate dehydrogenase (PDH) [7]: inhibit pyruvate dehydrogenase (PDH) in an indirect fashion | EC50 (AML patient cells; read-out: Median EC50 in the AML population tested): ~375 nM | EC50 (AML patient cells; read-out: median EC50, AML specimens with simultaneous mutations in NPM1, DNMT3A and FLT3-ITD): 96 nM | EC50 (AML patient cells; read-out: median EC50, other AMLs subtypes): 423 nM | sensitivity of HOX-high versus HOX-med/low AML cells (AML patient cells; dose response validation screening, large cohort): significantly more sensitive | sensitivity of HOX-high versus HOX-med/low patient cells (AML patient cells; primary screen of 60 compounds): significantly more sensitive
